Data reported in ChEMBL document CHEMBL5726598, “Compounds, compositions and methods” (2017).

Each compound was assayed against T1, Receptor-interacting serine/threonine-protein kinase 1 (Homo sapiens, UniProt Q13546) (assay: For negative control the enzyme addition was replaced by assay buffer only.).
T1 sequence (Q13546 whole entry): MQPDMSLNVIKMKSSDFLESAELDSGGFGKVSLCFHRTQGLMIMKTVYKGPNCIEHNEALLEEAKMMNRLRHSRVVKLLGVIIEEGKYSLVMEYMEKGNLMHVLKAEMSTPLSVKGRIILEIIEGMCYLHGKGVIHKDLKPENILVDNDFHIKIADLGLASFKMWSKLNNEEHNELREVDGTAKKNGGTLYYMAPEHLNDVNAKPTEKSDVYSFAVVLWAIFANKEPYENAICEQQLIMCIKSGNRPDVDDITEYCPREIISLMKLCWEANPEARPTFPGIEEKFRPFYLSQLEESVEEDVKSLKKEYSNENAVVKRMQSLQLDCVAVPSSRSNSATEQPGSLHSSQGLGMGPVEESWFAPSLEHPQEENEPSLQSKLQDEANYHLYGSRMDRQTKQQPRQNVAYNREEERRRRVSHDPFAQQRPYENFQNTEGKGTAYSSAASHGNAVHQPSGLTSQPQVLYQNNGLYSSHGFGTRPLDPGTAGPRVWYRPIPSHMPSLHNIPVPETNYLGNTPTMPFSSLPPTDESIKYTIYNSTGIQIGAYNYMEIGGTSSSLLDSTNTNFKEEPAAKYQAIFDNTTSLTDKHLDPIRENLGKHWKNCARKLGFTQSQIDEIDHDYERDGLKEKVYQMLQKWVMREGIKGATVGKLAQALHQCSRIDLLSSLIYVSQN

IC50	SMILES
0.0001 to 1 µM	CN1C(=O)[C@@H](NC(=O)c2cc(C3(c4ccccc4)CC3)on2)COc2cnccc21
0.0001 to 1 µM	CN1C(=O)[C@@H](NC(=O)c2nn(Cc3ccccc3C#N)cc2F)COc2cccnc21

SMILES	IC50
CN1C(=O)[C@H](NC(=O)c2cc(Oc3ccc(F)cc3F)ccn2)CCc2cccnc21	> 3 µM
